Assay results from patent publication US20080045499A1, “Preferential Inhibition of Presenilin-1” (Elan Pharmaceuticals, Inc., priority 2006, published 2008).
pIC50: −log10 of the molar value. Read-outs that look alike come from different tables or passages of the source.

Experiments:
[1] = biological target: T1, Presenilin-2-comprised γ-secretase (Homo sapiens, UniProt P49810); assay: Aβ1-x ELISA in Presenilin-2 transfected PS1/PS2 double knockout mouse fibroblasts; format: cell-based; conditions: for inhibition at 10 µM: compound concentration of 10 uM, estimated from the inhibition curve
T1 construct: expressed in transfected cells; host or cells: mouse fibroblasts derived from PS1/PS2 double knockout cells, pCF vector
Description: (§1) A131-x represents any Aβ peptides longer than Aβ1-23, including Aβ38, Aβ40, and Aβ42, since Aβ1-x is defined operationally by an ELISA assay using proprietary antibody mAb 266 for capture and proprietary antibody mAb 3D6 for detection. The epitope for mAb266 is Aβ16-23, and the epitope for mAb 3D6 is Aβ1-5. […] Aβ40 ELISA employed antibodies mAb 266 as capture and 2G3 (specific for Ab40) as detection, respectively. Furthermore, Aβ42 ELISA employed antibodies mAb 266 as capture and 21F12 as detection, respectively. Hybridomas producing antibodies against Aβ16-23 were generated by standard murine fusion procedures as detailed in Kohler and Milstein (Nature 256:495 1975) and U.S. Pat. No. 4,666,829 which are hereby incorporated by reference in their entireties. See also “Detailed Description” herein. Briefly, two BALB/c mice immunized with Aβ13-28 conjugated to 2C-11 (a T-cell receptor monoclonal antibody) were sacrificed and the spleens removed. Mixed splenocytes were obtained by pressing the spleens through a 30 mesh stainless steel screen. These were fused with P3X63Ag8 murine myeloma cells (aminopterin sensitive) at a fusion ratio of 10:1 in 35% polyethylene-glycol. These cells were plated out in 96 well tissue culture plates in the presence of 2×10^6 thymocytes/ml. Hybridomas were selected for by growing the cells in the presence of aminopterin poisoned Dulbecco's modified Eagle's media augmented with hypoxanthine, thymine and 10% fetal bovine serum. Hybridomas were screened for reactivity against Aβ13-28 and AAP protein via ELISA. Positive clones were sub-cloned twice. Aliquots of the clones were frozen and stored in liquid nitrogen. Supernatants from positive clones were produced in large quantities for further purification of monoclonal antibodies.
(§2) For ELISA assays, each well of 96-well ELISA plates was coated with 100 μl of 10 μg/ml 266 in Well Coating Buffer (pH 8.5) at 4 degrees overnight, and blocked with 0.25% human BSA solution at 25 degrees for 120 minutes. The plate can be used directly without wash, after removing blocking solution.
(§3) ELISA assays were performed at room temperature. Fifty μl of conditioned medium from overnight culture of transfected cells, with or without gamma secretase inhibitors, were added to each well of ELISA plates, and incubated for 1 hour. After washing plates with Tris-buffered saline (TBS) plus 0.05% Tween-20, 50 μl biotinylated 3D6 antibody at 0.5 μg/ml was added to each well and incubate for 45 minutes. […] Next, plates were washed with Tris-buffered saline (TBS) plus 0.05% Tween-20, and 50 μl substrate (1-step slow TMB-Elisa, Pierce, Woburn, Mass., USA, catalogue number: 34024) was added to each well and incubated for 15 min. Finally, substrate reactions were terminate by adding to each well 15 ul 2 NH2SO4, and OD readings were obtained on SpectraMax Plus (Molecular Devices, Sunnyvale, Calif., USA). The Aβ concentration of samples was then obtained by comparing sample OD readings to those of standards.
(§4) EC50 values were derived by curve fitting of Aβ1-x levels, for samples treated with various concentrations of gamma secretase inhibitors, with XLfit software program (IDBS, Alameda, Calif., USA). Differences in EC50 values obtained for Presenilin-1 transfected cells and Presenilin-2 transfected cells exposed to a test compound served as an indicator of differential inhibition.
(§5) Transfected mouse fibroblasts derived from the PS1/PS2 double knockout cells are grown at 37 degree under 10% CO2 in Dulbecco's modified Eagle's medium (DMEM) containing 2-10% fetal bovine serum (FBS) and 100 μg/ml penicillin/streptomycin (Pen/Strp) (Invitrogen Corporation, Carlsbad, Calif., USA).
(§6) Cell culture medium is then removed from the transfected cell lines and analyzed for Aβ1-x levels by ELISA assay, as described in Example 1. ELISA assays are performed using ELISA plates coated with the mAb 266 to capture Aβ peptides and then by detecting Aβ peptides with biotinylated mAb 3D6.

[2] = biological target: T2, Presenilin-1-comprised γ-secretase (Homo sapiens, UniProt P49768); assay: Aβ1-x ELISA in Presenilin-1 transfected PS1/PS2 double knockout mouse fibroblasts; format: cell-based
T2 construct: expressed in transfected cells; host or cells: mouse fibroblasts derived from PS1/PS2 double knockout cells, pCF vector
Description: as §1, §2, §3, §4, §5, §6

[3] = test system: Presenilin-1-comprised γ-secretase relative to Presenilin-2-comprised γ-secretase; assay: PS1/PS2 selectivity: ratio of EC50 in Presenilin-2 and Presenilin-1 transfected cells; format: cell-based, human; conditions: for PS2/PS1 EC50 ratio: EC50 of Presenilin-2 transfected cells over Presenilin-1 transfected cells
Description: as §4
as §6, with “3D6. EC50 values are derived for all of the test compounds. Differences in EC50 values obtained for Presenilin-1 transfected cells and Presenilin-2 transfected cells exposed to a test compound serve as an indicator of differential inhibition.” for “3D6.”
For example, several tested compounds are sulfonamide compounds, while several are non-sulfonamide compounds. The ratio of the EC50 value obtained for Presenilin-2 transfected cells and Presenilin-1 transfected cells (indicated in the last column of Table I) indicates the degree to which the test compound is capable of preferentially inhibiting Presenilin-1. […] In Table 2, the values shown in columns A, B and C are EC50 values (nM). Where inhibition was very low, EC50 values were not generated by the program; thus EC50 values are not provided. Rather, percent of inhibition was estimated based on the inhibition curve generated by the program. Percentages indicate percentage inhibition at a compound concentration of 10 uM. […]

293sw = 293sw IC50 of gamma-secretase inhibitors; format: cell-based
[4] = column A, read-out: PS2 percentage inhibition, column A
[5] = column B, read-out: PS2 percentage inhibition, column B
[6] = column A, Aβ1-x, Presenilin-1 transfected cells, overnight, read-out: PS1 EC50 (nM) A
[7] = column B, Aβ1-x, Presenilin-1 transfected cells, overnight, read-out: PS1 EC50 (nM) B
[8] = column A, Aβ1-x, Presenilin-2 transfected cells, overnight, read-out: PS2 EC50* (nM) A
[9] = column B, Aβ1-x, Presenilin-2 transfected cells, overnight, read-out: PS2 EC50* (nM) B
[10] = mean values from 2 independent experiments (FIG. 11)

SMILES | EC50 [2, 6] | EC50 [2, 7] | PS2/PS1 EC50 ratio [3] | pIC50 (293sw) | EC50 [1, 8] | EC50 [1, 9] | also measured
COc1ccc(CN(C2CCCCNC2=O)S(=O)(=O)c2ccc(Cl)cc2)cc1OC (stereo not drawn) | 228 nM | 425 nM | ˜30 |  |  |  | inhibition at 10 µM [1, 4]: 45%; inhibition at 10 µM [1, 5]: 50%
COc1ccc(CN([C@@H](CO)CC(C)C)S(=O)(=O)c2ccc(Cl)cc2)cc1OC | 385 nM | 364 nM | ˜26 | 6.91 |  |  | inhibition at 10 µM [1, 4]: 47%; inhibition at 10 µM [1, 5]: 48%
COc1ccc(CN(C2CCCCC2C)S(=O)(=O)c2ccc(Cl)cc2)cc1OC (stereo not drawn) | 49 nM | 48 nM | 10 | 7.26 | 606 nM | 404 nM | 
O=C1NCCCC[C@H]1N(CCCN1C(=O)c2ccccc2C1=O)S(=O)(=O)c1ccc(Cl)cc1 | 3720 nM | 6960 nM | >10 | 6.66 |  |  | inhibition at 10 µM [1, 4]: 28%; inhibition at 10 µM [1, 5]: 4%
CCCCN([C@@H]1CCCCNC1=O)S(=O)(=O)c1ccc(Cl)cc1 | 1410 nM | 928 nM | >10 | 6.72 |  |  | inhibition at 10 µM [1, 4]: 26%; inhibition at 10 µM [1, 5]: 15%
O=C1NCCCC[C@H]1N(Cc1cnc(N2CCCCC2)s1)S(=O)(=O)c1ccc(Cl)cc1 | 370 nM | 263 nM | ˜30 | 6.92 |  |  | inhibition at 10 µM [1, 4]: 47%; inhibition at 10 µM [1, 5]: 44%
C/C(=C\c1ccccc1)CN([C@@H]1CCNC1=O)S(=O)(=O)c1ccc(Cl)cc1 | 2170 nM | 1980 nM | >10 | 6.47 |  |  | inhibition at 10 µM [1, 4]: 1%; inhibition at 10 µM [1, 5]: 0%
COc1ccc(CN(C2CC(C)CCC2C)S(=O)(=O)c2ccc(Cl)cc2)cc1 (stereo not drawn) | 136 nM | 161 nM | 22 | 6.75 | 3000 nM | 3460 nM | 
O=C1NCCCC[C@H]1N(C/C=C/c1cccnc1)S(=O)(=O)c1ccc(Cl)cc1 | 46 nM | 65 nM | 61 | 7.38 | 4000 nM | 2780 nM | 
O=C1NCCCC[C@H]1N(Cc1ccc(Br)cc1)S(=O)(=O)CC(F)(F)F | 1280 nM | 686 nM | >10 | 6.51 |  |  | inhibition at 10 µM [1, 4]: 20%; inhibition at 10 µM [1, 5]: 19%
CSc1ncccc1-c1nc(CN([C@@H]2CCCCNC2=O)S(=O)(=O)c2ccc(Cl)cc2)no1 | 212 nM | 116 nM | 11 | 6.95 | 2100 nM | 2580 nM | 
CCC(C)N(C(C)CC)S(=O)(=O)c1ccc(Cl)nc1 (stereo not drawn) | 1390 nM | 787 nM | 4 | 6.41 | 5860 nM | 3320 nM | 
C[C@H](NC(=O)c1ccc(CN([C@@H]2CCCCNC2=O)S(=O)(=O)c2ccc(Cl)cc2)cc1)c1ccccc1 | 143 nM | 139 nM | 4 |  | 465 nM | 777 nM | 
C[C@@H](NC(=O)c1ccc(CN([C@@H]2CCCCNC2=O)S(=O)(=O)c2ccc(Cl)cc2)cc1)c1ccccc1 | 57 nM | 44 nM | 1.5 | 7.80 | 60 nM | 91 nM | 
Cc1nc(-c2ccc(CN([C@@H]3CCCCNC3=O)S(=O)(=O)c3ccc(Cl)cc3)cc2)no1 | 105 nM | 98 nM | 8 | 7.36 | 750 nM | 809 nM | 
O=C1NCCCC[C@H]1N(Cc1ccc2snnc2c1)S(=O)(=O)c1ccc(Cl)cc1 | 18 nM | 23 nM | 47 | 8.10 | 922 nM | 951 nM | 
O=C1NCCCC[C@H]1N(Cc1ccc2nccnc2c1)S(=O)(=O)c1ccc(Cl)cc1 | 36 nM | 31 nM | 37 | 8.05 | 1410 nM | 1040 nM | 
O=C(NCc1ccccc1)c1ccc(CN([C@@H]2CCCCNC2=O)S(=O)(=O)c2ccc(Cl)cc2)cc1 | 19 nM | 19 nM | 1.8 | 8.00 | 30 nM | 38 nM | 
C[C@H](NC(=O)[C@@H](O)c1cc(F)cc(F)c1)C(=O)N[C@@H]1C(=O)N(C)c2ccccc2-c2ccccc21 |  |  |  | 10.19 |  |  | 
COc1ccc(CN([C@H]2CCCCNC2=O)S(=O)(=O)c2ccc(Cl)cc2)cc1OC |  |  |  | 5.00 |  |  | EC50 ([1]; column A, bound given in μM, read-out: PS2 EC50 A): > 10000 nM; EC50 ([1]; column B, bound given in μM, read-out: PS2 EC50 B): > 10000 nM; EC50 ([2]; column A, bound given in μM, read-out: PS1 EC50 A): > 10000 nM; EC50 ([2]; column B, bound given in μM, read-out: PS1 EC50 B): > 10000 nM
O=C1NCCCC[C@H]1N(Cc1cc2ccccc2o1)S(=O)(=O)c1ccc(Cl)cc1 | 30 nM | 63 nM | 46 |  | 2420 nM | 1880 nM | EC50 ([1]; column C, Aβ1-x, Presenilin-2 transfected cells, overnight, read-out: PS2 EC50* (nM) C): 2380 nM; EC50 ([2]; column C, Aβ1-x, Presenilin-1 transfected cells, overnight, read-out: PS1 EC50 (nM) C): 50 nM
C[C@H](NC(=O)Cc1cc(F)cc(F)c1)C(=O)N[C@H](C(=O)OC(C)(C)C)c1ccccc1 [DAPT, reference compound] |  |  |  |  |  |  | fold more selective for PS2 [3, 10]: 2 fold
CC(C)C[C@H](NC(=O)[C@H](Cc1ccccc1)C[C@@H](O)[C@H](Cc1ccccc1)NC(=O)OC(C)(C)C)C(=O)N[C@@H](Cc1ccccc1)C(N)=O [L-685,458, reference compound] |  |  |  |  |  |  | fold more selective for PS1 [3, 10]: ~3 fold
C[C@H](c1ccc(F)cc1CCCC(=O)O)N(c1cc(F)ccc1F)S(=O)(=O)c1ccc(Cl)cc1 [reference compound] | 21 nM | 17 nM | 12 |  | 223 nM | 247 nM | 
